# Source: the NIST ThermoML archive (doi:10.1021/je3005479)
# Numbers after ± are expanded uncertainties.
# Experiments:
# [1] = Liquid; for speed of sound / kinematic viscosity: 83.07 kPa; for speed of sound: Pulse-echo method; for mass density: 87.07 kPa, Vibrating tube method; for kinematic viscosity: Capillary tube (Ostwald / Ubbelohde) method
# [2] = refractive index (Na D-line) (dimensionless); conditions: 83.07 kPa, Liquid, Standard Abbe refractometry
smiles,measurement,setting,value
"CC(C)C1CC(C(C)C)CC(C(C)C)C1 (stereo not drawn) [1,3,5-triisopropylcyclohexane]",speed of sound,[1]; 278.15 K,1405.7 ± 2.3 m/s
same,mass density,[1]; 278.15 K,837.78 ± 0.39 kg/m3
same,speed of sound,[1]; 283.15 K,1385 ± 2.3 m/s
same,mass density,[1]; 283.15 K,834.14 ± 0.39 kg/m3
same,speed of sound,[1]; 288.15 K,1364.8 ± 2.2 m/s
same,mass density,[1]; 288.15 K,830.52 ± 0.39 kg/m3
same,kinematic viscosity,[1]; 293.15 K,7.66e-06 ± 1.3e-07 m2/s
same,speed of sound,[1]; 293.15 K,1344.8 ± 2.2 m/s
same,mass density,[1]; 293.15 K,826.89 ± 0.39 kg/m3
same,kinematic viscosity,[1]; 298.15 K,6.27e-06 ± 1.1e-07 m2/s
same,speed of sound,[1]; 298.15 K,1325 ± 2.2 m/s
same,mass density,[1]; 298.15 K,823.27 ± 0.39 kg/m3
same,kinematic viscosity,[1]; 303.15 K,5.22e-06 ± 8.4e-08 m2/s
same,speed of sound,[1]; 303.15 K,1305.5 ± 2.2 m/s
same,mass density,[1]; 303.15 K,819.64 ± 0.39 kg/m3
same,kinematic viscosity,[1]; 308.15 K,4.43e-06 ± 6.8e-08 m2/s
same,speed of sound,[1]; 308.15 K,1286.3 ± 2.2 m/s
same,mass density,[1]; 308.15 K,816.02 ± 0.39 kg/m3
same,kinematic viscosity,[1]; 313.15 K,3.81e-06 ± 5.6e-08 m2/s
same,speed of sound,[1]; 313.15 K,1267.3 ± 2.2 m/s
same,mass density,[1]; 313.15 K,812.39 ± 0.39 kg/m3
same,kinematic viscosity,[1]; 318.15 K,3.32e-06 ± 4.9e-08 m2/s
same,speed of sound,[1]; 318.15 K,1248.6 ± 2.1 m/s
same,mass density,[1]; 318.15 K,808.76 ± 0.39 kg/m3
same,kinematic viscosity,[1]; 323.15 K,2.9e-06 ± 3.7e-08 m2/s
same,speed of sound,[1]; 323.15 K,1230 ± 2.1 m/s
same,mass density,[1]; 323.15 K,805.12 ± 0.39 kg/m3
same,kinematic viscosity,[1]; 328.15 K,2.58e-06 ± 3.1e-08 m2/s
same,speed of sound,[1]; 328.15 K,1211.7 ± 2.1 m/s
same,mass density,[1]; 328.15 K,801.49 ± 0.39 kg/m3
same,kinematic viscosity,[1]; 333.15 K,2.32e-06 ± 2.7e-08 m2/s
same,speed of sound,[1]; 333.15 K,1193.6 ± 2.1 m/s
same,mass density,[1]; 333.15 K,797.85 ± 0.39 kg/m3
same,kinematic viscosity,[1]; 338.15 K,2.09e-06 ± 2.3e-08 m2/s
same,speed of sound,[1]; 338.15 K,1175.6 ± 2.1 m/s
same,mass density,[1]; 338.15 K,794.21 ± 0.39 kg/m3
same,kinematic viscosity,[1]; 343.15 K,1.9e-06 ± 2.1e-08 m2/s
same,speed of sound,[1]; 343.15 K,1158 ± 2.1 m/s
same,mass density,[1]; 343.15 K,790.57 ± 0.39 kg/m3
same,kinematic viscosity,[1]; 348.15 K,1.74e-06 ± 1.9e-08 m2/s
same,kinematic viscosity,[1]; 353.15 K,1.6e-06 ± 1.7e-08 m2/s
same,kinematic viscosity,[1]; 358.15 K,1.48e-06 ± 1.5e-08 m2/s
same,kinematic viscosity,[1]; 363.15 K,1.37e-06 ± 1.4e-08 m2/s
same,kinematic viscosity,[1]; 368.15 K,1.28e-06 ± 1.3e-08 m2/s
same,kinematic viscosity,[1]; 373.15 K,1.19e-06 ± 1.4e-08 m2/s
same,refractive index,[2]; 293.15 K,1.4571 ± 0.0009
same,refractive index,[2]; 298.15 K,1.4547 ± 0.0007
same,refractive index,[2]; 303.15 K,1.4525 ± 0.0011
